The text below walks through data of US11807835B2, “Detergent compositions containing a stabilized enzyme by phosphonates” (ECOLAB USA INC., priority 2016, dated 2023).

This assay relates to lipase. Briefly: Lipase activity retention in detergent use solution (4000 ppm, 5 GPG water; p-nitrophenyl valerate, TRIS buffer pH 8.0). It counts as biochemical. To be noted: base formula. Put shortly:
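Lipase stability was measured in a detergent use solution under conditions mimicking presoak or manual warewash, with stirring in a water bath. Aliquots were taken over time and flash-frozen. Thawed samples were diluted in TRIS buffer at pH 8.0 and assayed with p-nitrophenyl valerate as substrate on a plate reader. Activity is reported as % retained relative to the time=0 sample.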

The structures appear in SMILES notation.

With `NCP(=O)(O)O` [AMPA, Aminomethyl phosphonic acid], the “Relative Lipase Enzyme Activity” value runs as follows: (phosphonate 0.6 wt-%, use solution at 120º F., time 0 min) 100.00%; (phosphonate 0.6 wt-%, use solution at 120º F., time 5 min) 80.17%; (phosphonate 0.6 wt-%, use solution at 120º F., time 10 min) 64.48%; (phosphonate 0.6 wt-%, use solution at 120º F., time 20 min) 49.45%; (phosphonate 0.6 wt-%, use solution at 120º F., time 40 min) 37.77%; (phosphonate 0.6 wt-%, use solution at 120º F., time 60 min) 26.82%. Further, the “Relative Lipase Enzyme Activity” value is recorded as 19.59% (phosphonate 0.6 wt-%, use solution at 120º F., time 90 min); 15.84% (phosphonate 0.6 wt-%, use solution at 120º F., time 120 min); 15.01% (phosphonate 0.6 wt-%, use solution at 120º F., time 150 min); 13.23% (phosphonate 0.6 wt-%, use solution at 120º F., time 180 min); 12.05% (phosphonate 0.6 wt-%, use solution at 120º F., time 210 min); 11.16% (phosphonate 0.6 wt-%, use solution at 120º F., time 240 min). Also, the “Relative Lipase Enzyme Activity” value is, setting by setting: (phosphonate at 0.1% elemental phosphorus, at 120º F. or at room temperature (as titled), time 0 min) 100.00%; (phosphonate at 0.1% elemental phosphorus, at 120º F. or at room temperature (as titled), time 5 min) 79.03%; (phosphonate at 0.1% elemental phosphorus, at 120º F. or at room temperature (as titled), time 10 min) 77.51%; (phosphonate at 0.1% elemental phosphorus, at 120º F. or at room temperature (as titled), time 20 min) 62.55%; (phosphonate at 0.1% elemental phosphorus, at 120º F. or at room temperature (as titled), time 40 min) 53.26%; (phosphonate at 0.1% elemental phosphorus, at 120º F. or at room temperature (as titled), time 60 min) 44.19%. The “Relative Lipase Enzyme Activity” value came to 33.99% (phosphonate at 0.1% elemental phosphorus, at 120º F. or at room temperature (as titled), time 90 min); 28.67% (phosphonate at 0.1% elemental phosphorus, at 120º F. or at room temperature (as titled), time 120 min); 23.85% (phosphonate at 0.1% elemental phosphorus, at 120º F. or at room temperature (as titled), time 150 min); 16.98% (phosphonate at 0.1% elemental phosphorus, at 120º F. or at room temperature (as titled), time 180 min); 17.74% (phosphonate at 0.1% elemental phosphorus, at 120º F. or at room temperature (as titled), time 210 min); 16.10% (phosphonate at 0.1% elemental phosphorus, at 120º F. or at room temperature (as titled), time 240 min).
